From patent US20240391923A1, “METHIONINE ADENOSYLTRANSFERASE 2A INHIBITOR FOR TREATING MTAP DELETION-TYPE CANCER” (SUZHOU GENHOUSE BIO CO., LTD., priority 2022, published 2024)
Read-outs that look alike come from different tables or passages of the source.

Key:
[1] = biological target: MAT2A recombinant protein (Homo sapiens, UniProt P31153); assay: MAT2A inhibitory activity (malachite green colorimetric enzyme assay); assay type: biochemical
Source text: MAT2A catalyzes the reaction of L-methionine and ATP to generate S-adenosylmethionine (SAM), inorganic phosphonic acid, and inorganic diphosphonic acid. Malachite green reacts with inorganic phosphonic acid to generate a green product, and the enzyme activity of MAT2A can be indirectly reflected by detecting the content of the inorganic phosphonic acid in a sample.
The test compounds were formulated using DMSO and diluted 1:3 diluted through 10 concentration points to give a final starting concentration in the reaction system of 1000 nM. The test compounds at different concentrations described above were transferred to a 384-well plate. Experimental buffer (50 mM HEPES pH 7.5, 50 mM KCl, 10 mM MgCl2, 10 mM DTT) was prepared. 2×MAT2A recombinant protein was prepared using the buffer and added to a 384-well plate. A mixed solution of 2×L-methionine and ATP was prepared using the buffer, and added to a 384-well plate. The enzymatic reaction was started, and the reaction was carried out at room temperature for 60 min. 20 μL of a colorimetric detection reagent was added to the above system, and incubated at room temperature for 15 min. The absorbance at 630 nm was measured. The inhibition rate of the compound on the enzyme activity was calculated, and the inhibition rate value and the logarithm value of the compound concentration were fitted using non-linear regression (dose response-variable slope) to give the IC50 value of the test compound.

[2] = system: HCT116-MTAP-knockout (−/−) cell strain; assay: Tumor cell proliferation inhibition assay (CellTiter-Glo), HCT116-MTAP-knockout (-/-); assay type: cell-based; details: Homo sapiens, 120 h, 5-day treatment
Experimental: (§1) After the HCT116-MTAP-knockout (−/−) cell strain, the HCT116-MTAP wild-type(+/+)-cell strain, the DOHH-2 cell strain, or the Hut-78 cell strain was treated with the test compound for 5 days, the ATP level was measured using a CellTiter-Glo kit of Promega to evaluate the inhibition of the test compound against the growth of the tumor cell strain.
(§2) In the present application, the HCT116-MTAP-knockout (−/−) cell strain, the HCT116-MTAP wild-type (+/+)-cell strain, the DOHH-2 cell strain, or the Hut-78 cell strain was seeded into a 96-well cell culture plate at an appropriate cell density. After 24 h, the cells were treated using the test compounds diluted 1:3 fold at the highest concentration of 10 μM for 10 gradients, and a DMSO treatment group was set up separately. The cells were cultured in a 37° C./5% CO2 incubator for 5 days.

[3] = system: HCT116-MTAP wild-type (+/+)-cell strain; assay: Tumor cell proliferation inhibition assay (CellTiter-Glo), HCT116-MTAP wild-type (+/+); assay type: cell-based; details: Homo sapiens, 120 h, 5-day treatment
Experimental: as §1, §2

[4] = system: SDMA in HCT116-MTAP-knockout cell line; assay: Cell symmetric dimethylarginine (SDMA) test, In-cell Western, HCT116-MTAP-knockout; assay type: cell-based; details: Homo sapiens, 96 h
[5] = system: SDMA in human colon cancer cell line HCT116; assay: Cell symmetric dimethylarginine (SDMA) test, In-cell Western, HCT116 (MTAP wild-type); assay type: cell-based; details: Homo sapiens, HCT-116, 96 h
Source text: MAT2A catalyzes the reaction of L-methionine and ATP to generate SAM, inorganic phosphonic acid, and inorganic diphosphonic acid. SAM is an important methyl donor, and is a substrate of arginine methyltransferase 5 (PRMT5). PRMT5 catalyzes SDMA modification of multiple proteins within a cell. The intracellular SDMA modification level was detected by ICW (In-cell Western), and the inhibition of the test compound on the enzymatic activity of intracellular MAT2A was indirectly reflected.
In the present application, the human colon cancer cell line HCT116 and the corresponding HCT116-MTAP-knockout cell line were seeded into a 96-well cell culture plate at an appropriate cell density. After 24 h, the cells were treated using the test compounds diluted 1:4 fold at the highest concentration of 6 μM for 6 gradients, and a DMSO treatment group was set up separately. The cells were cultured in a 37° C./5% CO2 incubator for 4 days. To test the inhibitory activity of the test compounds against tumor cell SDMA, the medium was discarded, and the plate was washed 3 times with PBST. 4% paraformaldehyde was then used at room temperature for fixation for 20 min. The fixation solution was discarded, the plate was washed 3 times with PBST, and a special blocking solution was added to each well for blocking at room temperature for 2 h. The blocking solution was discarded. After the plate was washed 3 times with PBST, the plate was incubated with SDMA antibody at 4° C. overnight. The next day, the plate was washed 3 times with PBST. The secondary antibody and DRAQ5 were diluted to an appropriate concentration with the blocking solution, and incubated at room temperature for 2 h; the plate was washed 3 times with PBST, and the fluorescence signals at 700 nm and 800 nm were detected using a Li—COR Odyssey two-color near-infrared laser imager.
The data was then processed. After the corresponding background value was subtracted from each well, statistical analysis was performed on the 800 nm/700 nm ratio for each well, a sigmoidal dose-inhibition curve was plotted using a non-linear regression model, and IC50 values were fitted and calculated. Inhibition Rate (%)=(1−SDMA dose/SDMA DMSO control)*100. SDMA dose is the value of the drug treatment group, and SDMA DMSO control is the value of the DMSO control group.

[6] = IC50 score class, read-out: MAT2A Inhibition (score)
[7] = HCT116-MTAP−/− cells, IC50 class score, read-out: Tumor cell 5-day relative growth inhibition (HCT116-MTAP−/−) (nM), score
[8] = HCT116-MTAP−/− cells, read-out: Tumor cell 5-day relative growth inhibition (HCT116-MTAP−/−)
[9] = HCT116-MTAP+/+ cells, IC50 class score, read-out: Tumor cell 5-day relative growth inhibition (HCT116-MTAP+/+) (nM), score
[10] = HCT116-MTAP+/+ cells, read-out: Tumor cell 5-day relative growth inhibition (HCT116-MTAP+/+)
[11] = HCT116-MTAP-knockout (−/−) cells, IC50 score, read-out: Tumor cell 5-day relative growth inhibition (HCT116-MTAP−/−) (nM), score
[12] = HCT116-MTAP-knockout (−/−) cells, IC50 value, read-out: Tumor cell 5-day relative growth inhibition (HCT116-MTAP−/−)
[13] = HCT116-MTAP wild-type (+/+) cells, IC50 score, read-out: Tumor cell 5-day relative growth inhibition (HCT116-MTAP+/+) (nM), score
[14] = HCT116-MTAP wild-type (+/+) cells, IC50 value, read-out: Tumor cell 5-day relative growth inhibition (HCT116-MTAP+/+)
[15] = IC50 score class, read-out: Cell 96 h SDMA Inhibition (HCT116-MTAP−/−) (score)
[16] = read-out: Cell 96 h SDMA Inhibition (HCT116-MTAP−/−)
[17] = IC50 score class, read-out: Cell 96 h SDMA Inhibition (HCT116-MTAP+/+) (score)
[18] = read-out: Cell 96 h SDMA inhibition (HCT116-MTAP+/+)

Sequence of MAT2A recombinant protein (P31153 whole entry): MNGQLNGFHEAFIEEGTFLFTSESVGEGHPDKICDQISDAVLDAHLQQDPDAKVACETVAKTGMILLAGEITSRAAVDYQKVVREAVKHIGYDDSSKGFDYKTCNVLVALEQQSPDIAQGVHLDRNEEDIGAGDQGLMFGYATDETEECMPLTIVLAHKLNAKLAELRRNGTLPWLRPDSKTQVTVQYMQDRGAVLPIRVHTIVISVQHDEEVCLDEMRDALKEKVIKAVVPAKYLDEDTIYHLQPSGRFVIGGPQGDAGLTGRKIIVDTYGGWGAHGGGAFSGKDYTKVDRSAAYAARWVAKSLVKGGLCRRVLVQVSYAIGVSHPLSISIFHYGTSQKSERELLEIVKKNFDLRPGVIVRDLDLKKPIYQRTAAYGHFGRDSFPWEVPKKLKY

Row | SMILES | IC50 [1, 6] [nM] | IC50 ([1]; read-out: MAT2A Inhibition) [nM] | IC50 [2, 7] [nM] | IC50 [2, 8] [nM] | IC50 [3, 9] [nM] | IC50 [3, 10] [nM] | IC50 [2, 11] [nM] | IC50 [2, 12] [nM] | IC50 [3, 13] [nM] | IC50 [3, 14] [nM] | IC50 [4, 15] [nM] | IC50 [4, 16] [nM] | IC50 [5, 17] [nM] | IC50 [5, 18] [nM]
1 | Cn1cnc2c(=O)n(-c3ccc4ccccc4n3)c3nc(C(F)(F)F)ccc3c21 [Compound B402] | > 1000 | > 10000 | ≥ 2000 | > 10000 | ≥ 2000 | > 10000 |  |  |  |  |  |  |  | 
2 | O=c1c2n[nH]cc2c2ccc(C(F)(F)F)nc2n1-c1ccccc1Cl [Compound B409] |  |  | 500 to 2000 | 1530 | ≥ 2000 | 4040 |  |  |  |  |  |  |  | 
3 | Cn1cnc2c(=O)n(-c3ccc4ccccc4c3)c3nc(C(F)(F)F)ccc3c21 [Compound B404] | > 1000 | > 10000 | ≥ 2000 | > 10000 | ≥ 2000 | > 10000 |  |  |  |  |  |  |  | 
4 | Cn1ncc2c3ccc(C(F)(F)F)nc3n(-c3ccccc3Cl)c(=O)c21 [Compound B410] | > 1000 | > 10000 | ≥ 2000 | > 10000 | ≥ 2000 | > 10000 |  |  |  |  |  |  |  | 
5 | Cn1cc2c(n1)c(=O)n(-c1cccnc1C(F)(F)F)c1cc(Cl)c(F)cc21 [Compound B342] |  |  |  |  |  |  | < 500 | 355 | ≥ 2000 | > 10000 |  |  |  | 
6 | Cn1cnc2c(=O)n(-c3cnc4ccccc4c3)c3nc(C(F)(F)F)ccc3c21 [Compound B403] | > 1000 | > 10000 | ≥ 2000 | > 10000 | ≥ 2000 | > 10000 |  |  |  |  |  |  |  | 
7 | Cn1cnc2c(=O)n(-c3cccc4[nH]ncc34)c3cc(Cl)c(C#N)cc3c21 [Compound B375] |  |  |  |  |  |  | ≥ 2000 | > 10000 | ≥ 2000 | > 10000 |  |  |  | 
8 | CCn1cc2c(n1)c(=O)n(-c1ccccc1)c1cc(Cl)ccc21 [Compound B2] | 100 to 1000 | 105 |  |  |  |  | ≥ 2000 | 2830 |  |  |  |  |  | 
9 | Cn1cc2c(n1)c(=O)n(-c1cccnc1C1CC1)c1cc(Cl)c(C#N)cc21 [Compound B348] |  |  |  |  |  |  | ≥ 2000 | > 10000 | ≥ 2000 | ≥ 10000 |  |  |  | 
10 | Cn1cc2c(n1)c(=O)n(-c1cccc3[nH]ncc13)c1cc(Cl)cnc21 [Compound B273] | < 100 | 83 |  |  |  |  | 500 to 2000 | 1400 | ≥ 2000 | 7600 | 200 to 1000 | 517 |  | 
11 | Cn1cnc2c(=O)n(-c3cncc4ccccc34)c3nc(C(F)(F)F)ccc3c21 [Compound B406] |  |  | ≥ 2000 | > 10000 | ≥ 2000 | > 10000 |  |  |  |  |  |  |  | 
12 | Cn1cnc2c(=O)n(-c3ccc4ncccc4c3)c3nc(C(F)(F)F)ccc3c21 [Compound B401] |  |  | ≥ 2000 | > 10000 | ≥ 2000 | > 10000 |  |  |  |  |  |  |  | 
13 | Cn1cnc2c(=O)n(-c3ccc4ncccc4n3)c3nc(C(F)(F)F)ccc3c21 [Compound B405] | > 1000 | > 10000 | ≥ 2000 | > 10000 | ≥ 2000 | > 10000 |  |  |  |  |  |  |  | 
14 | Cn1cc2c(n1)c(=O)n(-c1cccc3[nH]nc(Cl)c13)c1cc(Cl)c(F)cc21 [Compound B412] | < 100 | 6.4 |  |  |  |  |  |  |  |  | < 200 | 5.8 | > 3000 | > 10000
15 | Cn1cnc2c(=O)n(-c3cccc4ccncc34)c3nc(C(F)(F)F)ccc3c21 [Compound B407] |  |  | ≥ 2000 | > 10000 | ≥ 2000 | > 10000 |  |  |  |  |  |  |  | 
16 | Cn1cnc2c(=O)n(-c3cccc4ncccc34)c3nc(C(F)(F)F)ccc3c21 [Compound B408] |  |  | ≥ 2000 | > 10000 | ≥ 2000 | > 10000 |  |  |  |  |  |  |  | 
17 | O=c1c2nn(C(F)F)cc2c2cc(F)c(Cl)cc2n1-c1cccc2[nH]ncc12 [Compound B260] | < 100 | 17 |  |  |  |  | < 500 | 69.7 |  |  | < 200 | 57.5 |  | 
18 | Cn1cc2c(n1)c(=O)n(-c1cncc(F)c1)c1nc(C(F)(F)F)ccc21 [Compound B202] | < 100 | 49.9 |  |  |  |  |  |  |  |  | 1000 to 3000 | 1440 | > 3000 | 15300
19 | Cn1cc2c(n1)c(=O)n(-c1cccc3[nH]nc(F)c13)c1cc(Cl)c(F)cc21 [Compound B411] | < 100 | 10 |  |  |  |  |  |  |  |  | < 200 | 5.2 | > 3000 | > 10000
20 | Cn1cc2c(n1)c(=O)n(-c1cccc3[nH]nc(Br)c13)c1cc(Cl)ccc21 [Compound B332] | < 100 | 39 |  |  |  |  |  |  |  |  | < 200 | 9 | > 3000 | > 10000
21 | CCOc1ccc2c3cn(C)nc3c(=O)n(-c3ccc(OC(F)F)cc3)c2n1 [Compound B400] |  |  | ≥ 2000 | > 10000 | ≥ 2000 | > 10000 |  |  |  |  |  |  |  | 
22 | Cn1cc2c(n1)c(=O)n(-c1cccc(C(N)=O)c1)c1nc(C(F)(F)F)ccc21 [Compound B234] | < 100 | 25.5 |  |  |  |  |  |  |  |  | 1000 to 3000 | 1370 | > 3000 | > 3000
23 | Cn1cc2c(n1)c(=O)n(-c1cccc3[nH]ncc13)c1cc(C(F)(F)F)c(C#N)cc21 [Compound B391] | < 100 | 10 |  |  |  |  |  |  |  |  | < 200 | 11 | > 3000 | > 10000
24 | Cc1ncccc1-n1c(=O)c2nn(C)cc2c2ccc(C3CC3)nc21 [Compound B75] | < 100 | 43.9 |  |  |  |  |  |  |  |  | < 200 | 14.6 | 200 to 1000 | 298
